# According to US9238797B2, “Method for production of pluripotent stem cell” (TAKARA BIO INC., priority 2008, dated 2016):
# How the values were obtained:
# Format in all cases: cell-based
# human skin fibroblast [1] = experiment: iPS cell colony induction, Retronectin or polybrene with changed virus amount (Example 10); settings: 28th day of culture, N=2
# Experimental: Regarding gene transfer with a retrovirus vector, an amount of retrovirus was further changed in the condition under which each of Retronectin or polybrene was used, and induction of a pluripotent stem cell was carried out, followed by comparison. According to the same manner as that of Example 7-(2), gene transfer was carried out, provided that a group in which a virus solution is diluted 10-fold or 100-fold with 10F-DMEM was set. […] According to the same manner as that of Example 7-(4), the gene-introduced cell was seeded on a feeder cell, and culturing was continued, provided that the gene-introduced cell was seeded by each 2×10^4 cells. […] In addition, the number in the Table indicates an average value of N=2.
# human skin fibroblast [2] = experiment: Gene transfer efficiency with two retrovirus vectors, double positive cells (Example 9); settings: 5 days after gene transfer
# Experimental: (§1) According to the same manner as that of Example 8-(1), immobilization of Retronectin on a culture plate was carried out.
# According to the same manner as that of Example 8-(2), gene transfer was carried out, provided that a group in which a virus solution is diluted 10-fold or 100-fold with 10F-DMEM was set.
# According to the same manner as that of Example 8-(3), a gene transfer efficiency was measured, provided that measurement with a flow cytometer was carried out 5 days after gene transfer operation.
# [3] = test system: human skin fibroblast derived from four different donors; experiment: Gene transfer efficiency, double positive cells, fibroblast of four donors, gene transfer two times (Example 12); settings: sixth day of culture, N=2
# Experimental: Gene transfer efficiencies using a plurality of retrovirus vectors with Retronectin or polybrene were further compared. Introduction of a fluorescent protein gene was carried out targeting human skin fibroblast derived from four different donors, using a method of performing gene transfer two times as in the pluripotent stem cell inducing experiment. In the present Example, the cell A indicates derived from a person, the cell B indicates derived from a person, the cell C indicates derived from a person, and the cell D indicates derived from a person (all manufactured by Lonza).
# as §1
# According to the same manner as that of Example 8-(2), gene transfer was carried out (day 0 of culturing), provided that a group in which a virus solution was diluted 10-fold, 100-fold or 1000-fold with 10F-DMEM was set.
# According to the same manner as that of Example 8-(3), a gene transfer efficiency was measured on the sixth day of culture. […] In addition, the number in the Table indicates an average value of N=2.
# human skin fibroblast [4] = experiment: iPS cell colony number, Retronectin method versus polybrene method (Example 19); settings: for iPS cell colony number: 28th day of culture
# Experimental: As an index showing an existence rate of a cell in which each retrovirus vector together with a gene encoding a nuclear reprogramming factor (iPS cell inducing factor) was inserted, gene transfer of an AcGFP1 gene was carried out, and a pluripotent stem cell (iPS cell) induction efficiency and an AcGFP1 positive cell rate, in a gene transfer method with Retronectin (Retronectin method) and a gene transfer method with polybrene (polybrene method) were compared. In addition, regarding partial condition, quantitation of a copy number of a retrovirus vector inserted into a genome was carried out, and comparison of a copy number and a pluripotent stem cell (iPS cell) induction efficiency was carried out.
# The virus solutions prepared in Preparation Example 2 and Preparation Example 3 were mixed at an equal amount in a combination of Table 24, the solution in which the virus solution was diluted 10-fold and 100-fold with 10F-DMEM was prepared regarding the condition A, and the solution in which the virus solution was diluted 10-fold was prepared regarding the condition B, and these were used in gene transfer. Gene transfer was carried out according to the same manner as that of Example 7-(2), provided that 1 mL of PSB was used for washing a plate with PBS in the Retronectin method, the cell number used in infection by the Retronectin method and the polybrene method was 4×10^4 cells/well, and a retrovirus vector solution was 1 mL/well.
# According to the same manner as that of Example 10-(4), seeding of the gene-introduced cell on a feeder cell was carried out, provided that an AcGFP1 positive cell rate was measured with a flow cytometer using remaining cells which were not used in seeding on the feeder cell.
# According to the same manner as that of Example 10-(5), culturing on the feeder cell was carried out, provided that cells were recovered from a part of wells under the condition A on the 11th day of culture, genome extraction was carried out, and the inserted number of the retrovirus vector was quantitated.
# [5] = test system: human adult skin fibroblast; experiment: iPS cell colony induction, standing infecting method, Retronectin versus Native fibronectin (Example 21); settings: virus 10-fold dilution, standing infection, 27th day of culture, N=3
# Experimental: Using a plate coated with Retronectin and a plate coated with Native fibronectin, gene transfer was carried out, and pluripotent stem cell induction was carried out. In addition, as the plate, a plate made in the following Example 21-(1), and a marketed product of a 35 mm petri dish coated with Retronectin in advance (T110A manufactured by TAKARA BIO INC.), and a marketed product of a 35 mm petri dish coated with Native fibronectin in advance (354457 manufactured by FALCON) were used.
# According to the same manner as that of Example 1-(1), immobilization of Retronectin on a culture plate was carried out, provided that, as a culturing container, a non-treatment 35 mm petri dish (manufactured by IWAKI CO., LTD.) was used. In addition, petri dishes coated with Retronectin and Native fibronectin in advance which are marketed products (hereinafter, also described as Retronectin dish and fibronectin dish) were not subjected to these immobilization operations.
# The virus solutions prepared in Preparation Example 2 were mixed at an equal amount in a combination of Table 27, and diluted 10-fold with 10F-DMEM, each 2 mL was added to the Retronectin-immobilized culturing petri dish prepared in Example 21-(1), or the petri dish coated with Retronectin or Native fibronectin in advance, and this was allowed to stand in a CO2 incubator at 32° C. for 4 to 6 hours. […]
substance,measurement,setting,value
"Retronectin: fragment of fibronectin having a heparin-II binding region (registered trademark, CH-296, TAKARA BIO INC.)",Number of iPS cell colonies,human skin fibroblast [1]; virus 10-fold dilution,12.0
same,Number of iPS cell colonies,human skin fibroblast [1]; virus 100-fold dilution,17.5
same,Number of iPS cell colonies,human skin fibroblast [1]; virus solution undiluted,6.5
same,Ratio of both positive cells,human skin fibroblast [2]; virus 10-fold dilution,55.4
same,Ratio of both positive cells,human skin fibroblast [2]; virus 100-fold dilution,67.6
same,Ratio of both positive cells,human skin fibroblast [2]; virus solution undiluted,33.9
same,Ratio of double positive cells,"[3]; Cell A, Virus 10-fold dilution",55.9
same,Ratio of double positive cells,"[3]; Cell A, Virus 100-fold dilution",61.6
same,Ratio of double positive cells,"[3]; Cell A, Virus 1000-fold dilution",51.9
same,Ratio of double positive cells,"[3]; Cell A, Virus stock solution",42.5
same,Ratio of double positive cells,"[3]; Cell B, Virus 10-fold dilution",49.7
same,Ratio of double positive cells,"[3]; Cell B, Virus 100-fold dilution",57.7
same,Ratio of double positive cells,"[3]; Cell B, Virus 1000-fold dilution",48.7
same,Ratio of double positive cells,"[3]; Cell B, Virus stock solution",35.9
same,Ratio of double positive cells,"[3]; Cell C, Virus 10-fold dilution",54.6
same,Ratio of double positive cells,"[3]; Cell C, Virus 100-fold dilution",60.2
same,Ratio of double positive cells,"[3]; Cell C, Virus 1000-fold dilution",46.4
same,Ratio of double positive cells,"[3]; Cell C, Virus stock solution",42.1
same,Ratio of double positive cells,"[3]; Cell D, Virus 10-fold dilution",54.2
same,Ratio of double positive cells,"[3]; Cell D, Virus 100-fold dilution",63.2
same,Ratio of double positive cells,"[3]; Cell D, Virus 1000-fold dilution",51.0
same,Ratio of double positive cells,"[3]; Cell D, Virus stock solution",38.4
same,iPS cell colony number higher in the Retronectin method,"human skin fibroblast [4]; Condition A, Retronectin method 100-fold dilution versus polybrene method 10-fold dilution",9 fold
same,"difference in the iPS cell colony number, Retronectin method versus polybrene method","human skin fibroblast [4]; Condition A, retrovirus 10-fold dilution",≥ 3 fold
same,iPS cell colony number higher in the Retronectin method,"human skin fibroblast [4]; Condition B, versus polybrene method",2 fold
same,iPS cell colony number,"human skin fibroblast [4]; vector combination Condition A, virus 10-fold dilution",10.0
same,iPS cell colony number,"human skin fibroblast [4]; vector combination Condition A, virus 100-fold dilution",27.0
same,iPS cell colony number,"human skin fibroblast [4]; vector combination Condition B, virus 10-fold dilution",11.5
same,Number of iPS cell colonies,"[5]; Condition A: DON5-am-OCT4-IR-SOX2, DON5-am-KLF4",52.0
same,Number of iPS cell colonies,"[5]; Condition B: DON5-am-OCT4-IR-SOX2, DON5-am-LIN28-IR-NANOG, DON5-am-KLF4",97.3
